The source of these data is patent US20250188057A1, “NON-AROMATIC CYCLIC-PYRIMIDINE ANALOGS AS GLUCOSYLCERAMIDE SYNTHASE INHIBITORS” (Merck Sharp & Dohme LLC, priority 2022, published 2025).

SMILES strings stand for the structures.

The target in this test is glucosylceramide synthase (GCS) (Homo sapiens (Human), UniProt Q16739). The test is described as follows: UDP-Glo glucosylceramide synthase biochemical assay. The settings on record: endogenous GCS in Golgi preparations isolated from human A375 malignant melanoma skin cells; UDP detection by luminescence. The procedure, abridged: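 Endogenous GCS in A375 Golgi preparations (1.5 μg total protein) was preincubated with compound for 30 min at RT, then reacted with UDP-glucose and ceramide for 20 h at RT. UDP was detected by luciferase luminescence, normalized to DMSO and reference-inhibitor controls, with EC50 and % Emax from a 4PL fit.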
Chain of glucosylceramide synthase (GCS) (Q16739 whole entry): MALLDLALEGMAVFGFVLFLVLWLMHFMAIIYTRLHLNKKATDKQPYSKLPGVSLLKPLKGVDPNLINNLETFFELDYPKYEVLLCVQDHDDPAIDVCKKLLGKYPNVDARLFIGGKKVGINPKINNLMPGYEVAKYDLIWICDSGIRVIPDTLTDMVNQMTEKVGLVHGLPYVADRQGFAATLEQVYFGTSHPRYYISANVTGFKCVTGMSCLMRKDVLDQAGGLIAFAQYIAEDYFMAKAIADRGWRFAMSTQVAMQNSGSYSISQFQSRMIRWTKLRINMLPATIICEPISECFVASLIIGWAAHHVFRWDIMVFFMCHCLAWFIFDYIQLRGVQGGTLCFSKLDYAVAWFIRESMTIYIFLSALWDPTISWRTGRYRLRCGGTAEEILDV
For `N#Cc1cnc(C2CC2)nc1N1CC2OCCN(Cc3ccccc3)C2C1` (stereo not drawn) [Compound 86, 4-(4-benzylhexahydropyrrolo[3,4-b][1,4]oxazin-6(2H)-yl)-2-cyclopropylpyrimidine-5-carbonitrile], half-maximal inhibition (IC50) required 937 nM.
For `N#Cc1ccccc1C1CCN(c2nc(C3CC3)ncc2C#N)C1` (stereo not drawn) [Compound 87, 4-(3-(2-cyanophenyl)pyrrolidin-1-yl)-2-cyclopropylpyrimidine-5-carbonitrile] the value was 218 nM.
`Cc1ccc(-c2noc(CN3CCN(c4nc(C5CC5)ncc4C#N)CC3)n2)cc1` [Compound 88, 2-cyclopropyl-4-(4-((3-(p-tolyl)-1,2,4-oxadiazol-5-yl)methyl)piperazin-1-yl)pyrimidine-5-carbonitrile] came in with a half-maximal inhibitory concentration (IC50) of 446 nM. Against the preceding molecule, the IC50 is about 2-fold higher.
For `N#Cc1cnc(C2CC2)nc1N1C[C@@H]2C[C@H]1CN2Cc1ccc(Cl)cc1` [Compound 89, 4-((1S,4S)-5-(4-chlorobenzyl)-2,5-diazabicyclo[2.2.1]heptan-2-yl)-2-cyclopropylpyrimidine-5-carbonitrile], the midpoint of inhibition, the IC50, lay at 352 nM. The IC50 values of the last two molecules are within 1.5-fold of each other.
For `N#Cc1cnc(C2CC2)nc1N(CC1CCC1)CC1CCCO1` (stereo not drawn) [Compound 90, 4-((cyclobutylmethyl)((tetrahydrofuran-2-yl)methyl)amino)-2-cyclopropylpyrimidine-5-carbonitrile] the value was 1620 nM.
For `N#Cc1cnc(C2CC2)nc1NC1CCc2ccc(O)cc21` (stereo not drawn) [Compound 91, 2-cyclopropyl-4-((6-hydroxy-2,3-dihydro-1H-inden-1-yl)amino)pyrimidine-5-carbonitrile], half-maximal inhibition (IC50) was put at 379 nM.
Molecule `N#Cc1cnc(C2CC2)nc1NC1CN(C(c2ccccc2)c2ccccc2)C1` [Compound 92, 4-((1-benzhydrylazetidin-3-yl)amino)-2-cyclopropylpyrimidine-5-carbonitrile] showed a 50% inhibitory concentration (IC50) of 2900 nM.
Next, `CC(C)c1nc(-c2cccnc2N2CCN(c3nc(C4CC4)ncc3C#N)CC2)no1` [Compound 93, 2-cyclopropyl-4-(4-(3-(5-isopropyl-1,2,4-oxadiazol-3-yl)pyridin-2-yl)piperazin-1-yl)pyrimidine-5-carbonitrile]: 48 nM; `N#Cc1cnc(C2CC2)nc1NC1CCCc2sc(C3CCCCC3)nc21` (stereo not drawn) [Compound 94, 4-((2-cyclohexyl-4,5,6,7-tetrahydrobenzo[d]thiazol-4-yl)amino)-2-cyclopropylpyrimidine-5-carbonitrile]: 14 nM.
Consider `N#Cc1cnc(C2CC2)nc1NC1CCCc2sc(C3CCCC3)nc21` (stereo not drawn) [Compound 95, 4-((2-cyclopentyl-4,5,6,7-tetrahydrobenzo[d]thiazol-4-yl)amino)-2-cyclopropylpyrimidine-5-carbonitrile], for which the midpoint of inhibition, the IC50, lay at 19 nM. This IC50 and that of the molecule before are within 1.5-fold of each other.
The molecule `N#Cc1cnc(C2CC2)nc1NC1CCCc2sc(C3CCC3)nc21` (stereo not drawn) [Compound 96, 4-((2-cyclobutyl-4,5,67-tetrahydrobenzo[d]thiazol-4-yl)amino)-2-cyclopropylpyrimidine-5-carbonitrile] showed an IC50 of 46 nM.
As for `N#Cc1cnc(C2CC2)nc1OC1CCc2ccc(OC(F)(F)F)cc21` (stereo not drawn) [Compound 97, 2-cyclopropyl-4-((6-(trifluoromethoxy)-2,3-dihydro-1H-inden-1-yl)oxy)pyrimidine-5-carbonitrile], 18 nM corresponded to half-maximal inhibition (IC50). Compared with the last molecule, the IC50 is about 2.6-fold lower.
Next, `N#Cc1cnc(C2CC2)nc1OC1CCc2ccc(C(F)(F)F)cc21` (stereo not drawn) [Compound 98, 2-cyclopropyl-4-((6-(trifluoromethyl)-2,3-dihydro-1H-inden-1-yl)oxy)pyrimidine-5-carbonitrile]: 23 nM; `N#Cc1cnc(C2CC2)nc1OCC1CCN(c2ccccc2)C1` (stereo not drawn) [Compound 100, 2-cyclopropyl-4-((1-phenylpyrrolidin-3-yl)methoxy)pyrimidine-5-carbonitrile]: 160 nM.
Take `N#Cc1cnc(C2CC2)nc1OCC1CCC(c2ccccc2)O1` (stereo not drawn) [Compound 102, 2-cyclopropyl-4-((5-phenyltetrahydrofuran-2-yl)methoxy)pyrimidin-5-carbonitrile]: the IC50 was determined as 195 nM.
In the case of `N#Cc1cnc(C2CC2)nc1OCC12CC(COCc3ccccc3)(CO1)C2` [Compound 103, 4-((4-((benzyloxy)methyl)-2-oxabicyclo[2.1.1]hexan-1-yl)methoxy)-2-cyclopropylpyrimidine-5-carbonitrile], the IC50 is 2080 nM. This IC50 lies about 11-fold higher than the previous one.
Turning to `N#Cc1cnc(C2CC2)nc1OCC1CCCN1Cc1ccc(F)cc1` (stereo not drawn) [Compound 104, 2-cyclopropyl-4-((1-(4-fluorobenzyl)pyrrolidin-2-yl)methoxy)pyrimidine-5-carbonitrile], the IC50 turned out to be 1870 nM.
In turn, `COc1ccc(N2CCC(Oc3nc(C4CC4)ncc3C#N)C2)cc1` (stereo not drawn) [Compound 105, 2-cyclopropyl-4-((1-(4-methoxyphenyl)pyrrolidin-3-yl)oxy)pyrimidine-5-carbonitrile] showed a half-inhibitory concentration (IC50) of 321 nM. Against the preceding molecule, the IC50 is about 5.8-fold lower.
For `N#Cc1cnc(C2CC2)nc1OCC1CCCN1Cc1ccccc1Cl` (stereo not drawn) [Compound 106, 4-((1-(2-chlorobenzyl)pyrrolidin-2-yl)methoxy)-2-cyclopropylpyrimidine-5-carbonitrile] the value was 1330 nM.
Molecule `COc1ccc(N2CCC(COc3nc(C4CC4)ncc3C#N)C2)cc1` (stereo not drawn) [Compound 107, 2-cyclopropyl-4-((1-(4-methoxyphenyl)pyrrolidin-3-yl)methoxy)pyrimidine-5-carbonitrile] had a half-maximal inhibitory concentration (IC50) of 67 nM.
`N#Cc1cnc(C2CC2)nc1OC[C@H]1CCN(C2CCC(F)(F)CC2)C1` [Compound 108, (S)-2-cyclopropyl-4-((1-(4,4-difluorocyclohexyl)pyrrolidin-3-yl)methoxy)pyrimidine-5-carbonitrile] registered an IC50 of 3970 nM. This IC50 is about 59-fold higher than that of the molecule before.
For `Cc1nc2c(s1)CCCC2Nc1nc(C2CC2)nc(Cl)c1CO` (stereo not drawn) [Compound 109, (4-chloro-2-cyclopropyl-6-((2-methyl-4,5,6,7-tetrahydrobenzo[d]thiazol-4-yl)amino)pyrimidin-5-yl)methanol] the value was 593 nM; for `OCc1c(Cl)nc(C2CC2)nc1N1Cc2nc(Br)sc2C1` [Compound 111, (4-(2-bromo-4,6-dihydro-5H-pyrrolo[3,4-d]thiazol-5-yl)-6-chloro-2-cyclopropylpyrimidin-5-yl)methanol], 3260 nM.
Regarding `OCc1c(Cl)nc(C2CC2)nc1N1Cc2nc(-c3ccccc3)oc2C1` [Compound 112, (4-chloro-2-cyclopropyl-6-(2-phenyl-4,6-dihydro-5H-pyrrolo[3,4-d]oxazol-5-yl)pyrimidin-5-yl)methanol], the IC50 was determined as 2330 nM.
As to `OCc1c(Cl)nc(C2CC2)nc1N1CCC[C@@H]1c1ncc(-c2ccccc2)s1` [Compound 113, (R)-(4-chloro-2-cyclopropyl-6-(2-(5-phenylthiazol-2-yl)pyrrolidin-1-yl)pyrimidin-5-yl)methanol], the half-maximal inhibitory concentration (IC50) worked out at 750 nM.
Molecule `OCc1c(Cl)nc(C2CC2)nc1N1CCc2nc(C3CC3)sc2C1` [Compound 114, (4-chloro-2-cyclopropyl-6-(2-cyclopropyl-6,7-dihydrothiazolo[5,4-c]pyridin-5(4H)-yl)pyrimidin-5-yl)methanol] yielded an IC50 of 3330 nM.
`OCc1c(Cl)nc(C2CC2)nc1NC1CCCc2sc(C3CCCCC3)nc21` (stereo not drawn) [Compound 115, (4-chloro-6-((2-cyclohexyl-4,5,6,7-tetrahydrobenzo[d]thiazol-4-yl)amino)-2-cyclopropylpyrimidin-5-yl)methanol] registered a 50% inhibitory concentration (IC50) of 7.5 nM.
In the case of `CCC(C)c1nc2c(s1)CCCC2Nc1nc(C2CC2)nc(Cl)c1CO` (stereo not drawn) [Compound 116, (4-((2-(sec-butyl)-4,5,6,7-tetrahydrobenzo[d]thiazol-4-yl)amino)-6-chloro-2-cyclopropylpyrimidin-5-yl)methanol], the midpoint of inhibition, the IC50, lay at 3910 nM. This IC50 is about 520-fold higher than that of the molecule before.
Regarding `Cc1nc(N2CC(c3nc4ccccc4n3C)C2)cc(N2CC(CC(C)C)CC2=O)n1` (stereo not drawn) [Compound 117, 4-isobutyl-1-(2-methyl-6-(3-(1-methyl-1H-benzo[d]imidazol-2-yl)azetidin-1-yl)pyrimidin-4-yl)pyrrolidin-2-one], half-maximal inhibition (IC50) required 1140 nM.
For the molecule `Cc1nc(N2CC(c3nc4ccccc4[nH]3)C2)cc(N2CC(CC(C)C)CC2=O)n1` (stereo not drawn) [Compound 118, 1-(6-(3-(1H-benzo[d]imidazol-2-yl)azetidin-1-yl)-2-methylpyrimidin-4-yl)-4-isobutylpyrrolidin-2-one], the IC50 came to 2870 nM.
As for `Cc1nc(N2CC(c3nc4ccccc4n3C)C2)cc(N2CC(c3ccccc3)CC2=O)n1` (stereo not drawn) [Compound 119, 1-(2-methyl-6-(3-(1-methyl-1H-benzo[d]imidazol-2-yl)azetidin-1-yl)pyrimidin-4-yl)-4-phenylpyrrolidin-2-one], the IC50 stood at 3030 nM.
Next, `Cc1nc(N2CC(c3nc4ccccc4n3C)C2)cc(N2CC3(CCCC3)CC2=O)n1` [Compound 120, 2-(2-methyl-6-(3-(1-methyl-1H-benzo[d]imidazol-2-yl)azetidin-1-yl)pyrimidin-4-yl)-2-azaspiro[4.4]nonan-3-one]: 4130 nM.
The molecule `COC(=O)c1cc(N2CC(c3nc4ccccc4n3C)C2)nc(C)n1` [Compound 121, methyl 2-methyl-6-(3-(1-methyl-1H-benzo[d]imidazol-2-yl)azetidin-1-yl)pyrimidine-4-carboxylate] showed an IC50 of 2820 nM.
For `C=Cc1cc(N2CC(c3nc4ccccc4n3C)C2)nc(C)n1` [Compound 122, 1-methyl-2-(1-(2-methyl-6-vinylpyrimidin-4-yl)azetidin-3-yl)-1H-benzo[d]imidazole] the value was 3430 nM; for `Cc1nc2c(s1)CCCC2Nc1nc(C2CC2)nc(Cl)c1C(F)F` (stereo not drawn) [Compound 123, N-(6-chloro-2-cyclopropyl-5-(difluoromethyl)pyrimidin-4-yl)-2-methyl-4,5,6,7-tetrahydrobenzo[d]thiazol-4-amine], 841 nM.
Take `Cc1nc2c(s1)CCCC2Nc1nc(C2CC2)nc(C)c1C#N` (stereo not drawn) [Compound 124, 2-cyclopropyl-4-methyl-6-((2-methyl-4,5,6,7-tetrahydrobenzo[d]thiazol-4-yl)amino)pyrimidine-5-carbonitrile]: half-maximal inhibition (IC50) was put at 422 nM.
